Reference: PMC9667784, “Synthesis, biological evaluation and computational studies of pyrazole derivatives as Mycobacterium tuberculosis CYP121A1 inhibitors” (RSC Medicinal Chemistry, 2022)
≈ marks a conversion by molar mass, not a printed value. Where “and” joins values, the source holds several entries; their conditions need not be identical. Equal values may be shown once. Read-outs that look alike come from different tables or passages of the source.

Experiments:
Mtb CYP121A1 = target: T1, Mtb CYP121A1 (Mycobacterium tuberculosis, UniProt P9WPP7); test: biochemical; assay type: binding; settings: for Kd: 1 μM protein, 0 to 150 μM compound, plate reader, triplicate; for Soret shift: UV-vis absorbance, Soret band shift on ligand binding; for Spectral response in the UV-vis assay: compared with the imidazole derivatives
T1 construct: made in house

Mtb H37Rv [1] = test: microbe, parasite or virus in culture; assay type: cell-based; settings: Mycobacterium tuberculosis
CYP121A1 = settings: lead diarylpyrazole derivatives, Fig. 2; cited from earlier work
Mtb = tested on: Mtb; parameters: method as in PMID 31367508; settings: lead diarylpyrazole derivatives, Fig. 2; cited from earlier work
Mtb H37Rv [2] = tested on: Mtb H37Rv; parameters: method as in PMID 29185746; settings: previously prepared methoxy derivatives; cited from earlier work
[3] = Mtb H37Rv, SPOTi, five weeks at 37 °C, average of two independent experiments, read-out: MIC90

T1 sequence (P9WPP7 whole entry): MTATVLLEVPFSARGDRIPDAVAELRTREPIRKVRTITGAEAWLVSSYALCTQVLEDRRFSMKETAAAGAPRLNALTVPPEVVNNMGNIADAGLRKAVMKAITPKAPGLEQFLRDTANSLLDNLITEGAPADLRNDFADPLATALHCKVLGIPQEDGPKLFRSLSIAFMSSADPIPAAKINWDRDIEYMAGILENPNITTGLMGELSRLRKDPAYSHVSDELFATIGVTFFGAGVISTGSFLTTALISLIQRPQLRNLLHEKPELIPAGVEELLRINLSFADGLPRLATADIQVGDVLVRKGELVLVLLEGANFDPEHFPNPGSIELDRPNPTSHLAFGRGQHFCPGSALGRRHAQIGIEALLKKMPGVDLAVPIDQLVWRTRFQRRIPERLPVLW

CCCOc1ccc(-c2nn(-c3ccc(Cl)cc3)cc2Cn2ccnc2)cc1 [11f, 4-((1H-Imidazol-1-yl)methyl)-1-(4-chlorophenyl)-3-(4-propoxyphenyl)-1H-pyrazole]
Kd (Mtb CYP121A1): 11.7 µM | Soret shift (Mtb CYP121A1): 417 to 419 nm | Binding type from difference spectra (type I / type II) (Mtb CYP121A1; UV-vis binding difference spectra): type II | melting point: 90 to 92 °C | MIC90 (Mtb H37Rv [1]; [3]): 4 µg/mL and 10.1 µM

COc1ccc(-c2nn(-c3ccc(F)cc3)cc2Cn2ccnc2)cc1 [11a, 4-((1H-Imidazol-1-yl)methyl)-1-(4-fluorophenyl)-3-(4-methoxyphenyl)-1H-pyrazole]
Kd (Mtb CYP121A1): 65 ± 16.6 µM | Soret shift (Mtb CYP121A1): 417 to 421 nm | melting point: 150 to 152 °C | MIC90 (Mtb H37Rv [1]; [3]): 4.3 µg/mL and 12.3 µM

CO[C@H]1/C=C/O[C@@]2(C)Oc3c(C)c(O)c4c(O)c(c(/C=N/N5CCN(C)CC5)c(O)c4c3C2=O)NC(=O)/C(C)=C\C=C\[C@H](C)[C@H](O)[C@@H](C)[C@@H](O)[C@@H](C)[C@H](OC(C)=O)[C@@H]1C [Rifampicin, reference compound]
MIC90 (Mtb H37Rv [1]; [3]): 0.2 µg/mL and 0.3 µM

CC(C)Oc1ccc(-c2nn(-c3ccc(Cl)cc3)cc2Cn2ccnc2)cc1 [11h, 4-((1H-Imidazol-1-yl)methyl)-1-(4-chlorophenyl)-3-(4-isopropoxyphenyl)-1H-pyrazole]
Kd (Mtb CYP121A1): 17.7 µM | Soret shift (Mtb CYP121A1): 417 to 419 nm | melting point: 98 to 100 °C | MIC90 (Mtb H37Rv [1]; [3]): 4.4 µg/mL and 11.9 µM

COc1ccc(-c2nn(-c3ccc(Cl)cc3)cc2Cn2cncn2)cc1 [12b, 1-((1-(4-Chlorophenyl)-3-(4-methoxyphenyl)-1H-pyrazol-4-yl)methyl)-1H-1,2,4-triazole]
Kd (Mtb CYP121A1): 5.13 µM and 5.1 µM | Soret shift (Mtb CYP121A1): 417 to 417 nm | Spectral response in the UV-vis assay (Mtb CYP121A1): weak spectral response | melting point: 124 to 126 °C | MIC90 (Mtb H37Rv [1]; [3]): 4.4 µg/mL and 11.9 µM

CCCc1ccc(-c2nn(-c3ccccc3)cc2Cn2ccnc2)cc1 [R = Pr]
Kd (CYP121A1): 53.7 ± 5.9 µM | MIC (Mtb): 0.78 mg/L and 0.781 mg/L

COc1ccc(-c2nn(-c3ccccc3)cc2Cn2cncn2)cc1 [P2]
MIC90 (Mtb H37Rv [2]): 25 mg/L (≈ 75.4 µM)

CC(C)c1ccc(-c2nn(-c3ccccc3)cc2Cn2ccnc2)cc1 [R = iPr]
Kd (CYP121A1): 22.5 ± 3.5 µM | MIC (Mtb): 1.562 mg/L (≈ 4.56 µM)

CCCOc1ccc(-c2nn(-c3ccc(Cl)cc3)cc2Cn2cncn2)cc1 [12f, 1-((1-(4-Chlorophenyl)-3-(4-propoxyphenyl)-1H-pyrazol-4-yl)methyl)-1H-1,2,4-triazole]
melting point: 114 to 116 °C | MIC90 (Mtb H37Rv [1]; [3]): 6.4 µg/mL and 16.2 µM

CCOc1ccc(-c2nn(-c3ccc(F)cc3)cc2Cn2cncn2)cc1 [12c, 1-((3-(4-Ethoxyphenyl)-1-(4-fluorophenyl)-1H-pyrazol-4-yl)methyl)-1H-1,2,4-triazole]
melting point: 140 to 142 °C | MIC90 (Mtb H37Rv [1]; [3]): 25.6 µg/mL and 70.5 µM

CCOc1ccc(-c2nn(-c3ccc(F)cc3)cc2Cn2ccnc2)cc1 [11c, 4-((1H-Imidazol-1-yl)methyl)-3-(4-ethoxyphenyl)-1-(4-fluorophenyl)-1H-pyrazole]
Kd (Mtb CYP121A1): 54 ± 5.2 µM | Soret shift (Mtb CYP121A1): 417 to 422 nm | melting point: 118 to 120 °C | MIC90 (Mtb H37Rv [1]; [3]): 12 µg/mL and 33.2 µM

CCOc1ccc(-c2nn(-c3ccc(Cl)cc3)cc2Cn2ccnc2)cc1 [11d, 4-((1H-Imidazol-1-yl)methyl)-1-(4-chlorophenyl)-3-(4-ethoxyphenyl)-1H-pyrazole]
Kd (Mtb CYP121A1): 18.8 ± 10.2 µM | Soret shift (Mtb CYP121A1): 417 to 420 nm | melting point: 124 to 126 °C | MIC90 (Mtb H37Rv [1]; [3]): 5 µg/mL and 13.3 µM

COc1ccc(-c2nn(-c3ccccc3)cc2Cn2ccnc2)cc1 [P1]
MIC90 (Mtb H37Rv [2]): 25 mg/L (≈ 75.7 µM)

COc1ccc(-c2nn(-c3ccc(Cl)cc3)cc2Cn2ccnc2)cc1 [11b, 4-((1H-Imidazol-1-yl)methyl)-1-(4-chlorophenyl)-3-(4-methoxyphenyl)-1H-pyrazole]
melting point: 136 to 138 °C | MIC90 (Mtb H37Rv [1]; [3]): 6 µg/mL and 16.5 µM

NC[C@H]1O[C@H](O[C@H]2[C@H](O)[C@@H](O[C@H]3O[C@H](CO)[C@@H](O)[C@H](N)[C@H]3O)[C@H](N)C[C@@H]2N)[C@H](O)[C@@H](O)[C@@H]1O [Kanamycin, reference compound]
MIC90 (Mtb H37Rv [1]): 7.8 µg/mL and 16.1 µM

COc1ccc(-c2nn(-c3ccc(F)cc3)cc2Cn2cncn2)cc1 [12a, 1-((1-(4-Fluorophenyl)-3-(4-methoxyphenyl)-1H-pyrazol-4-yl)methyl)-1H-1,2,4-triazole]
melting point: 150 to 152 °C | MIC90 (Mtb H37Rv [1]; [3]): 12.8 µg/mL and 36.7 µM

CC(C)Oc1ccc(-c2nn(-c3ccc(F)cc3)cc2Cn2ccnc2)cc1 [11g, 4-((1H-Imidazol-1-yl)methyl)-1-(4-fluorophenyl)-3-(4-isopropoxyphenyl)-1H-pyrazole]
Kd (Mtb CYP121A1): 38.5 ± 8.7 µM | Soret shift (Mtb CYP121A1): 417 to 419 nm | melting point: 96 to 98 °C | MIC90 (Mtb H37Rv [1]; [3]): 4.3 µg/mL and 11.4 µM

CC(C)Oc1ccc(-c2nn(-c3ccc(Cl)cc3)cc2Cn2cncn2)cc1 [12h, 1-((1-(4-Chlorophenyl)-3-(4-isopropoxyphenyl)-1H-pyrazol-4-yl)methyl)-1H-1,2,4-triazole]
melting point: 98 to 100 °C | MIC90 (Mtb H37Rv [1]; [3]): 25.6 µg/mL and 65.1 µM

CCCOc1ccc(-c2nn(-c3ccc(F)cc3)cc2Cn2cncn2)cc1 [12e, 1-((1-(4-Fluorophenyl)-3-(4-propoxyphenyl)-1H-pyrazol-4-yl)methyl)-1H-1,2,4-triazole]
melting point: 120 to 122 °C | MIC90 (Mtb H37Rv [1]; [3]): 20.9 µg/mL and 55.5 µM

CC(C)Oc1ccc(-c2nn(-c3ccc(F)cc3)cc2Cn2cncn2)cc1 [12g, 1-((1-(4-Fluorophenyl)-3-(4-isopropoxyphenyl)-1H-pyrazol-4-yl)methyl)-1H-1,2,4-triazole]
melting point: 118 to 120 °C | MIC90 (Mtb H37Rv [1]; [3]): 20.9 µg/mL and 55.5 µM

NNC(=O)c1ccncc1 [Isoniazid, reference compound]
MIC90 (Mtb H37Rv [1]; [3]): 0.2 µg/mL and 1.8 µM

CCCOc1ccc(-c2nn(-c3ccc(F)cc3)cc2Cn2ccnc2)cc1 [11e, 4-((1H-Imidazol-1-yl)methyl)-1-(4-fluorophenyl)-3-(4-propoxyphenyl)-1H-pyrazole]
Kd (Mtb CYP121A1): 22.3 ± 4.2 µM | Soret shift (Mtb CYP121A1): 417 to 420 nm | melting point: 120 to 122 °C | MIC90 (Mtb H37Rv [1]; [3]): 6 µg/mL and 15.9 µM

CCOc1ccc(-c2nn(-c3ccc(Cl)cc3)cc2Cn2cncn2)cc1 [12d, 1-((1-(4-Chlorophenyl)-3-(4-ethoxyphenyl)-1H-pyrazol-4-yl)methyl)-1H-1,2,4-triazole]
Spectral response in the UV-vis assay (Mtb CYP121A1): weak spectral response | melting point: 122 to 124 °C | MIC90 (Mtb H37Rv [1]; [3]): 6.4 µg/mL and 16.8 µM

CCc1ccc(-c2nn(-c3ccccc3)cc2Cn2ccnc2)cc1 [R = Et]
Kd (CYP121A1): 18.3 ± 3.4 µM | MIC (Mtb): 1.562 mg/L (≈ 4.76 µM)
